Experimental data from ChEMBL document CHEMBL1201862, “PubChem BioAssay data set” (2004).
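Method: 48-hour compound exposure of cells in 96-well plates, five concentrations, linear interpolation of endpoints. GI50 is the concentration that inhibits growth by half.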 Activity calls are given as the source filed them. Cut-off read from the data, not from the text of the source: active = GI50 up to about 1.1 µM and inactive = higher.

How the values were obtained:
Assay in all cases: NCI anticancer screen, dose series, 48 h
[1] = system: 786-0
[2] = system: A498
[3] = system: A549
[4] = system: ACHN
[5] = system: BT-549
[6] = system: CAKI-1
[7] = system: CCRF-CEM
[8] = system: COLO 205
[9] = system: DU-145
[10] = system: EKVX
[11] = system: HCC 2998
[12] = system: HCT-116
[13] = system: HCT-15
[14] = system: HL-60
[15] = system: HOP-62
[16] = system: HOP-92
[17] = system: HT-29
[18] = system: Hs-578T
[19] = system: IGROV-1
[20] = system: K562
[21] = system: KM12
[22] = system: LOX IMVI
[23] = system: M14
[24] = system: MCF7
[25] = system: MDA-MB-231
[26] = system: MDA-MB-435
[27] = system: MDA-N
[28] = system: MOLT-4
[29] = system: NCI-H226
[30] = system: NCI-H23
[31] = system: NCI-H460
[32] = system: NCI-H522
[33] = system: NCI/ADR-RES
[34] = system: OVCAR-3
[35] = system: OVCAR-4
[36] = system: OVCAR-5
[37] = system: OVCAR-8
[38] = system: PC-3
[39] = system: RPMI-8226
[40] = system: RXF 393
[41] = system: SF-268
[42] = system: SF-295
[43] = system: SF-539
[44] = system: SK-MEL-2
[45] = system: SK-MEL-5
[46] = system: SK-OV-3
[47] = system: SN12C
[48] = system: SNB-19
[49] = system: SNB-75
[50] = system: SR
[51] = system: SW-620
[52] = system: T47D
[53] = system: TK-10
[54] = system: U-251
[55] = system: UACC-257
[56] = system: UACC-62
[57] = system: Malme-3M
[58] = system: SK-MEL-28
[59] = system: UO-31

Compound: COC(=O)C12CCC(C)(C)CC1C1=CCC3C4(C)CC(O)C(O)C(C)(C(=O)OC)C4CCC3(C)C1(CO)CC2 (stereo unspecified)
- GI50 [1]: 10.2 µM (inactive)
- GI50 [2]: 18.7 µM (inactive)
- GI50 [3]: 13.4 µM (inactive)
- GI50 [4]: 13.9 µM (inactive)
- GI50 [5]: 14.6 µM (inactive)
- GI50 [6]: 14 µM (inactive)
- GI50 [7]: 14.3 µM (inactive)
- GI50 [8]: 15.3 µM (inactive)
- GI50 [9]: 15.5 µM (inactive)
- GI50 [10]: 18.9 µM (inactive)
- GI50 [11]: 13.9 µM (inactive)
- GI50 [12]: 13.7 µM (inactive)
- GI50 [13]: 14.5 µM
- GI50 [14]: 7.52 µM (inactive)
- GI50 [15]: 17.9 µM (inactive)
- GI50 [16]: 14.2 µM (inactive)
- GI50 [17]: 13.6 µM (inactive)
- GI50 [18]: 12.6 µM (inactive)
- GI50 [19]: 17.8 µM (inactive)
- GI50 [20]: 15.6 µM (inactive)
- GI50 [21]: 9.38 µM (inactive)
- GI50 [22]: 14 µM (inactive)
- GI50 [23]: 6.75 µM (inactive)
- GI50 [24]: 14.1 µM (inactive)
- GI50 [25]: 17.4 µM (inactive)
- GI50 [26]: 15.1 µM (inactive)
- GI50 [27]: 13.3 µM (inactive)
- GI50 [28]: 8.13 µM (inactive)
- GI50 [29]: 16.9 µM (inactive)
- GI50 [30]: 15.5 µM (inactive)
- GI50 [31]: 15.7 µM (inactive)
- GI50 [32]: 14.9 µM (inactive)
- GI50 [33]: 12.9 µM (inactive)
- GI50 [34]: 16.7 µM (inactive)
- GI50 [35]: 13.5 µM (inactive)
- GI50 [36]: 17.9 µM (inactive)
- GI50 [37]: 13.6 µM (inactive)
- GI50 [38]: 10.3 µM (inactive)
- GI50 [39]: 12.1 µM (inactive)
- GI50 [40]: 6.68 µM (inactive)
- GI50 [41]: 18.5 µM (inactive)
- GI50 [42]: 14.7 µM (inactive)
- GI50 [43]: 15.7 µM (inactive)
- GI50 [44]: 14 µM (inactive)
- GI50 [45]: 16 µM (inactive)
- GI50 [46]: 16.9 µM (inactive)
- GI50 [47]: 18.3 µM (inactive)
- GI50 [48]: 16.6 µM (inactive)
- GI50 [49]: 11.9 µM (inactive)
- GI50 [50]: 3.42 µM (inactive)
- GI50 [51]: 11.4 µM (inactive)
- GI50 [52]: 10.7 µM (inactive)
- GI50 [53]: 19 µM (inactive)
- GI50 [54]: 18.5 µM (inactive)
- GI50 [55]: 17.2 µM (inactive)
- GI50 [56]: 14.3 µM (inactive)

Compound: COC(=O)c1ccccc1/C=C1\Cc2ccc3ccccc3c2C1C (stereo unspecified)
- GI50 [1]: 81.5 µM (inactive)
- GI50 [2]: > 100 µM (inactive)
- GI50 [3]: 51.3 µM (inactive)
- GI50 [4]: > 100 µM (inactive)
- GI50 [5]: 51.8 µM (inactive)
- GI50 [6]: > 100 µM (inactive)
- GI50 [7]: 45.8 µM (inactive)
- GI50 [8]: 60.1 µM (inactive)
- GI50 [9]: > 100 µM (inactive)
- GI50 [10]: 37.7 µM (inactive)
- GI50 [11]: > 100 µM (inactive)
- GI50 [12]: 8.09 µM (inactive)
- GI50 [13]: 58.5 µM
- GI50 [14]: 24.1 µM (inactive)
- GI50 [16]: 67.9 µM (inactive)
- GI50 [18]: 34.6 µM (inactive)
- GI50 [19]: > 100 µM (inactive)
- GI50 [20]: 37.6 µM (inactive)
- GI50 [21]: 41.4 µM (inactive)
- GI50 [22]: > 100 µM (inactive)
- GI50 [23]: 37.4 µM (inactive)
- GI50 [24]: 50.4 µM (inactive)
- GI50 [25]: > 100 µM (inactive)
- GI50 [26]: 45.7 µM (inactive)
- GI50 [27]: 43.6 µM (inactive)
- GI50 [28]: 27.2 µM (inactive)
- GI50 [57]: 53.7 µM (inactive)
- GI50 [29]: > 100 µM (inactive)
- GI50 [31]: > 100 µM (inactive)
- GI50 [32]: 16.6 µM (inactive)
- GI50 [33]: 36 µM (inactive)
- GI50 [34]: 25.6 µM (inactive)
- GI50 [35]: 45.6 µM (inactive)
- GI50 [36]: 13.2 µM (inactive)
- GI50 [37]: > 100 µM (inactive)
- GI50 [38]: 60.7 µM (inactive)
- GI50 [39]: 37 µM (inactive)
- GI50 [40]: 39.2 µM (inactive)
- GI50 [41]: > 100 µM (inactive)
- GI50 [42]: 70.8 µM (inactive)
- GI50 [43]: > 100 µM (inactive)
- GI50 [58]: > 100 µM (inactive)
- GI50 [44]: > 100 µM (inactive)
- GI50 [45]: 20.9 µM (inactive)
- GI50 [47]: 98.9 µM (inactive)
- GI50 [48]: > 100 µM (inactive)
- GI50 [49]: 72.4 µM (inactive)
- GI50 [50]: 32.7 µM (inactive)
- GI50 [51]: 93.3 µM (inactive)
- GI50 [52]: 17.4 µM (inactive)
- GI50 [53]: > 100 µM (inactive)
- GI50 [54]: > 100 µM (inactive)
- GI50 [55]: 48.9 µM (inactive)
- GI50 [56]: 57 µM (inactive)
- GI50 [59]: 42.1 µM (inactive)
